Results published in US20250134870A1, “PATHWAY MODULATOR, PHARMACEUTICAL COMPOSITION HAVING SAME, USE THEREOF, AND THERAPEUTIC METHOD USING SAME” (Jiangsu Yahong Meditech Co., Ltd., priority 2021, published 2025).

Experiments:
[1] = test system: 2,4-dinitrobenzenesulfonic acid (DNBS)-induced colitis; assay: DNBS-induced colitis in rats: pathological score of colon tissue (H&E); type: in vivo, Wistar rats
Text: The proximal, ulcer (corresponding sites can be taken, if there was no ulcer) and distal parts of the colon tissue fixed by neutral buffered formalin were embedded with paraffin, sectioned (thickness 5 μm), and histopathological score was given by H&E staining.

[2] = test system: peripheral blood cells; assay: Bleomycin-induced skin fibrosis in mice: blood routine test of peripheral blood (Example 5); type: in vivo, male C57BL/6 mice
Protocol: Animals were weighed at the experimental endpoints and the body weight was recorded to calculate the volume of administration. 6 h after dosing, firstly, whole blood was collected from the orbital venous plexus of mice and subjected to blood routine test using an automated Hematology analyzer (Sysmex XS-800i). The specific test steps were as follows: the blood sample in the test tube was thoroughly mixed before testing; the sample was placed under the sampling needle, then injected by pressing the start button, and removed after indicator light of the instrument was off; the instrument started to automatically test the sample and output the results.

[3] = test system: cocaine dependence; settings: used in combination with cocaine; cited from earlier work
[4] = test system: bleomycin-induced skin fibrosis; assay: Bleomycin-induced skin fibrosis in mice: skin histopathology (dermal thickness, capillary density score, inflammatory cell infiltration score); type: in vivo, male C57BL/6 mice
Protocol: The skin tissue of the lesioned skin was subjected to dehydration, embedding and sectioning according to the pathology SOP, and the tissue was stained by HE and Masson staining. Histopathological analysis was performed according to the following methods:
Masson-stained sections were panoramically scanned by using Nanozomer S210 and the scanned images were subjected to quantitative analysis using Visiopharm VIS6.0 software. The degree of fibrosis was currently represented by the dermal thickness after Masson staining.
The fields of observation was selected in the dermis layer of the lesioned area (the number of fields selected was determined according to the size of the lesioned area) and scored according to the area occupied by capillaries in the area: • 0: No capillary formed • 1: The proportion of capillaries formed was less than 25%; • 2: The proportion of capillaries formed was 25-50%; • 3: The proportion of capillaries formed was 50-75%; • 4: The proportion of capillaries formed was greater than 75%. 3.8.3 Inflammatory cell infiltration score of dermis layer
The fields of observation was selected in the dermis layer of the lesioned area (the number of fields selected was determined according to the size of the lesioned area) and scored according to the degree of inflammatory cell infiltration: • 0: No inflammatory cell infiltration: • 1: A small amount of focal inflammatory cell infiltration; • 2: Scattered diffuse inflammatory cell infiltration: • 3: A large amount of diffuse inflammatory cell infiltration; • 4: A large amount of agglomerated inflammatory cell infiltration.

[5] = test system: NMO-IgG-induced neuromyelitis optica; assay: NMO-IgG-induced neuromyelitis optica (NMO) in mice: AQP4, GFAP, IBA1, CD45 (Example 7); type: in vivo, C57 mice; settings: 50 and 100 mg/kg PO QD × 10 days
Protocol: 1) C57 female mice (6 to 8 weeks old) were anesthetized with intraperitoneal injection of 5% chloral hydrate (70 μL/10 g).
2) Fur of the top of head was removed to expose the scalp. The mouse head was fixed on the brain stereotaxic apparatus, keeping the top of the skull horizontal. The scalp was disinfected with iodophor.
3) The scalp was cut lengthwise for about 0.5 cm to search for the anterior and posterior fontanelle areas. The stereotaxic caliper was rotated to move the needle tip of trace syringe to the anterior and posterior fontanelle areas, and the mouse skull was kept horizontal by observing the distance from Bregma and Lambda to the needle tip. After horizontal adjustment, the needle tip was moved to Bregma and then moved 2 mm to the right to reach the position.
4) The position on the surface of the mouse skull was marked and a hole was drilled at this point with a skull drill. During drilling, blood vessels should be avoided and drilling should be continued carefully to avoid damaging the duramater and brain tissue.
5) The trace syringe was vertically introduced into the mouse brain tissue using the stereotaxic apparatus with a vertical needle depth of 3 mm. The syringe was kept in place and maintained for 5 min.
6) The syringe pump was turned on, the Infuse Only mode was selected, and the solution (2 μL NMO-IgG+3 μL human complement+5 μL PBS/drug, mixed and pipetted well in advance, and placed on ice) was injected at a speed of […].
7) After the injection was completed, the syringe was maintained for 10 min. The syringe was slowly pulled upward by rotating the caliper, and maintained for 5 min after moving 1 mm upward, until the syringe was completely pulled out. The skin was sutured and disinfected again with iodophor.
Dosing started 3 days before model establishment and lasted until 7 days after model establishment, for 10 consecutive days.
On Day 8 after model establishment (i.e., the day after the last dose), the experimental mice were euthanized and brain tissue was collected for frozen sections. Then, the immune response area of astrocyte markers in each group of mice was determined and evaluated (see the reference Ye Gong et al., Journal of Neuroinflammation, 17 (1). doi:10.1186/s12974-020-01874-6 for experimental methods).

[6] = test system: dextran sulfate sodium (DSS)-induced colitis; assay: DSS-induced colitis in mice: body weight, DAI score, colon density (Examples 1, 3); type: in vivo, C57BL/6J mice
Protocol: 8-10 week old female C57BL/6J mice purchased from Charles River Laboratories were used. The mice were housed in a room at constant temperature (20+2° C.) (5 mice per cage) with a 12-hour light-dark cycle. All protocols were approved by the Institutional Animal Care and Use Committee of WuXi AppTec. These mice were adapted to the housing conditions at the animal experiment center of WuXi AppTec for at least three days prior to the experiment. […] At the experimental endpoint (see hereinafter), mice were euthanized and endpoint samples were obtained. Mice in the normal group were not given 3% DSS aqueous solution to induce colitis and were free to drink blank water. […] The animal body weight and DAI score were assessed under double-blind conditions, that is, the researchers collected the body weight data of mice and observed and scored the stool characteristics and blood stools every day, without knowing the group and dosing regimen. The DAI score was the sum of the weight loss score, stool score and bleeding score. […] The data were analyzed by analysis of variance, specifically by using the following process: using Graph Pad Prism 6.0 software to carry out post-hoc Dunnett's multiple comparison test. […] Data were expressed as mean±S.E.M. The experimental endpoint was 24 hours after administration on Day 8 for the positive drug control group and the Test group 1 #to Test group 7 #of Example 1; the experimental endpoint of the normal group and the solvent group was the same as that of the positive drug control group and Test group 1 #to Test group 7 #.

[7] = mean, G5 Test group 2#, 10 mg/kg PO QD × 7
[8] = 100 mg/kg PO QD, 28 days (Test group 3#) vs solvent group
[9] = 50 and 100 mg/kg PO QD, 28 days (Test groups 2#, 3#)

Structure (SMILES): NCc1c[nH]c(=S)n1[C@H]1CCc2c(F)cc(F)cc2C1 [Nepicastat]
- total score of colon tissue injury ([1]; 10 mg/kg (Test group 2#)): significantly reduce
- Pathological score, Distal end, Damage [1, 7]: 0.93
- Pathological score, Distal end, Inflammation [1, 7]: 2.07
- Pathological score, Proximal end, Damage [1, 7]: 0.47
- Pathological score, Proximal end, Inflammation [1, 7]: 1.60
- Pathological score, Total score, Damage [1, 7]: 3.53
- Pathological score, Total score, Inflammation [1, 7]: 6.07
- Pathological score, Ulcer end, Damage [1, 7]: 2.13
- Pathological score, Ulcer end, Inflammation [1, 7]: 2.40
- lymphocytes in peripheral blood [2, 8]: significant differences in reducing
- monocytes in peripheral blood [2, 8]: significant differences in reducing
- neutrophils in peripheral blood [2, 8]: significant differences in reducing
- number of increased inflammatory cells in peripheral blood after bleomycin stimulation [2, 9]: reduce the number of increased inflammatory cells in peripheral blood
- positive effects of cocaine [3]: inhibit the positive effects of cocaine
- degree of fibrosis of the lesioned skin ([4]; 100 mg/kg PO QD, 28 days (Test group 3#)): reduce the degree of fibrosis of the lesioned skin
- effect to reduce dermal thickness ([4]; 25, 50 and 100 mg/kg PO QD, 28 days): dose-dependent, and the higher the dose, the more obvious the result, but there was no significant difference compared with the model group
- inflammatory cell infiltration of the lesioned skin [4, 9]: significantly reduce
- subdermal capillary hyperplasia [4, 9]: significantly reduce
- effect on NMO-IgG-induced neuromyelitis optica in mice [5]: certain inhibitory effect
- immune parameter CD45 [5]: no significant effect
- immune parameter IBA1 [5]: no significant effect
- lesion ratio of AQP4 ([5]; vs control group): significantly reduce the lesion ratio
- lesion ratio of GFAP ([5]; vs control group): significantly reduce the lesion ratio
- Body weight on Day 7, g ([6]; 30 mg/kg PO QD × 8 days): 19.71 g
- Body weight on Day 8, g ([6]; 30 mg/kg PO QD × 8 days): 18.88 g
- Body weight on Day 8/initial body weight, % ([6]; 30 mg/kg PO QD × 8 days): 90.68%
- DAI score on Day 8 ([6]; 30 mg/kg PO QD × 8 days): 5.30
- severity of DSS-induced colitis and disease activity ([6]; Nepicastat 30, Etamicastat 100, Zamicastat 100 mg/kg PO QD × 8 days (Test groups 1#, 4#, 7#) vs solvent group): ameliorated the severity of DSS-induced colitis and reduced disease activity
